We go through 4 molecules from publication PMC4722047, “Purification and characterization of the enzymes involved in nicotinamide adenine dinucleotide degradation by Penicillium brevicompactum NRC 829” (3 Biotech, 2016).

In this assay the test system is T1, NAD aminohydrolase (NAD deaminase).
T1 construct: native enzyme purified from mycelial extract (acetone, DEAE-Sephadex A-25, Sephadex G-100); 91 kDa by SDS-PAGE
The assay is described as follows: discontinuous ammonia release (Nessler's reagent). The assay is classed as biochemical, Penicillium brevicompactum. The settings on record: pH 6.0, 50 mM Tris-acetate. The text has this:
discontinuous ammonia release (Nessler's reagent) on NAD aminohydrolase (NAD deaminase)

[1] abbreviates: 40 °C (conditions given for NAD).

One may read the Km as the substrate concentration at which the rate is half of its maximum. On to `Nc1ncnc2c1ncn2[C@@H]1O[C@H](COP(=O)(O)OP(=O)(O)O)[C@@H](O)[C@H]1O` [ADP], for which the Km under setting [1] turned out to be 6.25 µM.

Take `Nc1ncnc2c1ncn2[C@@H]1O[C@H](COP(=O)(O)O)[C@@H](O)[C@H]1O` [AMP]: the Michaelis-Menten constant (Km) under setting [1] amounted to 8.33 µM.

For `Nc1ncnc2c1ncn2[C@@H]1O[C@H](CO)[C@@H](O)[C@H]1O` [Adenosine], the Michaelis-Menten constant (Km) under setting [1] was determined as 4.5 µM.

With `NC(=O)c1ccc[n+]([C@@H]2O[C@H](COP(=O)(O)OP(=O)(O)OC[C@H]3O[C@@H](n4cnc5c(N)ncnc54)[C@H](O)[C@@H]3O)[C@@H](O)[C@H]2O)c1` [NAD], the Michaelis constant (Km) (40 °C, 30 min, 1.5-20 µM NAD+) stood at 5.2 µM.
